From US8936916B2, “Polypeptides for microbial detection” (3M Innovative Properties Company, priority 2008, dated 2015)
Ends that are not written are not given here. * marks the point of attachment. Myristoyl = CCCCCCCCCCCCCC(=O)*

Test: Permeabilization of DPPC liposomes containing glucose oxidase by phosphorylated dermatoxin (absorbance at 538 nm)
Type: biochemical
Procedure: DPPC liposomes containing 5 mg/mL glucose oxidase were prepared as described in Example 2. Glucose oxidase activity was measured in a coupled enzyme reaction with horseradish peroxidase as described in Example 2. The various solutions were quickly added to each of the wells of a microplate using a multichannel pipette and the reactions were started (at T=0 hours) with the addition to the wells of a solution containing glucose and 4-AAP.
The ability of the phosphorylated dermatoxin to open liposomes in the presence of phosphatase was tested by preparing a developing solution as described in Example 2. One hundred-fifty microliters of the developing solution was placed in each well of a 96-well microplate. To each column in the plate was added 20 μL of TES buffer containing one of the following concentrations of unpurified dermatoxin: 3.3 mg/mL, 3.3×10^−1 mg/mL, 3.3×10^−2 mg/mL, 3.3×10^−3 mg/mL, 3.3×10^−4 mg/mL, 3.3×10^−5 mg/mL, 3.3×10^−6 mg/mL, or 3.3×10^−7 mg/mL. Negative control wells contained TES buffer with no dermatoxin. Positive control wells buffer contained TES buffer with Triton X-100. Ten-microliter aliquots of the following concentrations of DPPC liposomes (containing 5 mg/mL glucose oxidase) were added to wells in duplicate rows: 0.1 mg lipid/mL, 0.02 mg lipid/mL, 0.004 mg lipid/mL, or plain buffer. To one of the duplicate rows was added 20 μL of 2.5 mg/mL alkaline phosphatase in TES. The other duplicate row received 20 μL of TES buffer. Thus the final dermatoxin concentration in the well varied from […], and the final lipid concentration in the well ranged from 0.005 mg lipid/mL to 2.0×10^−4 mg lipid/mL.
The absorbance was recorded at 538 nm on a SpectraMax M5 plate reader (Molecular Devices, Sunnyvale, Calif.) after two hours incubation at room temperature, and also after overnight incubation (approximately 18 hours). Since the absorbance of several wells was saturated, the overnight samples were diluted 1:10 with 50 mmol TES and the absorbance of the diluted samples was measured.

SLGSFLKGVGTTLASVGKVVSDQFGKLLQAGQ (Myristoyl-SLGSFLKGVGTTLASVGKVVSDQFGKLLQAGQ; also: phosphorylated) [phosphorylated dermatoxin, fully phosphorylated dermatoxin, unpurified crude preparation]
Absorbance at 538 nm (cytolytic peptide activity) (2 hrs, lipid conc. 0, dermatoxin mass 3.3 × 10^−5 mg, with phosphatase): 0.122 absorbance units
Absorbance at 538 nm (cytolytic peptide activity) (2 hrs, lipid conc. 0, dermatoxin mass 3.3 × 10^−5 mg, without phosphatase): 0.121 absorbance units
Absorbance at 538 nm (cytolytic peptide activity) (2 hrs, lipid conc. 0, dermatoxin mass 3.3 × 10^−6 mg, with phosphatase): 0.120 absorbance units
Absorbance at 538 nm (cytolytic peptide activity) (2 hrs, lipid conc. 0, dermatoxin mass 3.3 × 10^−6 mg, without phosphatase): 0.115 absorbance units
Absorbance at 538 nm (cytolytic peptide activity) (2 hrs, lipid conc. 0, dermatoxin mass 3.3 × 10^−7 mg, with phosphatase): 0.118 absorbance units
Absorbance at 538 nm (cytolytic peptide activity) (2 hrs, lipid conc. 0, dermatoxin mass 3.3 × 10^−7 mg, without phosphatase): 0.116 absorbance units
Absorbance at 538 nm (cytolytic peptide activity) (2 hrs, lipid conc. 0, dermatoxin mass 3.3 × 10^−8 mg, with phosphatase): 0.119 absorbance units
Absorbance at 538 nm (cytolytic peptide activity) (2 hrs, lipid conc. 0, dermatoxin mass 3.3 × 10^−8 mg, without phosphatase): 0.114 absorbance units
Absorbance at 538 nm (cytolytic peptide activity) (2 hrs, lipid conc. 0, dermatoxin mass 3.3 × 10^−9 mg, with phosphatase): 0.118 absorbance units
Absorbance at 538 nm (cytolytic peptide activity) (2 hrs, lipid conc. 0, dermatoxin mass 3.3 × 10^−9 mg, without phosphatase): 0.113 absorbance units
Absorbance at 538 nm (cytolytic peptide activity) (2 hrs, lipid conc. 0.004, dermatoxin mass 3.3 × 10^−5 mg, with phosphatase): 0.204 absorbance units
Absorbance at 538 nm (cytolytic peptide activity) (2 hrs, lipid conc. 0.004, dermatoxin mass 3.3 × 10^−5 mg, without phosphatase): 0.200 absorbance units
Absorbance at 538 nm (cytolytic peptide activity) (2 hrs, lipid conc. 0.004, dermatoxin mass 3.3 × 10^−6 mg, with phosphatase): 0.197 absorbance units
Absorbance at 538 nm (cytolytic peptide activity) (2 hrs, lipid conc. 0.004, dermatoxin mass 3.3 × 10^−6 mg, without phosphatase): 0.161 absorbance units
Absorbance at 538 nm (cytolytic peptide activity) (2 hrs, lipid conc. 0.004, dermatoxin mass 3.3 × 10^−7 mg, with phosphatase): 0.130 absorbance units
Absorbance at 538 nm (cytolytic peptide activity) (2 hrs, lipid conc. 0.004, dermatoxin mass 3.3 × 10^−7 mg, without phosphatase): 0.119 absorbance units
Absorbance at 538 nm (cytolytic peptide activity) (2 hrs, lipid conc. 0.004, dermatoxin mass 3.3 × 10^−8 mg, with phosphatase): 0.126 absorbance units
Absorbance at 538 nm (cytolytic peptide activity) (2 hrs, lipid conc. 0.004, dermatoxin mass 3.3 × 10^−8 mg, without phosphatase): 0.111 absorbance units
Absorbance at 538 nm (cytolytic peptide activity) (2 hrs, lipid conc. 0.004, dermatoxin mass 3.3 × 10^−9 mg, with phosphatase): 0.126 absorbance units
Absorbance at 538 nm (cytolytic peptide activity) (2 hrs, lipid conc. 0.004, dermatoxin mass 3.3 × 10^−9 mg, without phosphatase): 0.115 absorbance units
Absorbance at 538 nm (cytolytic peptide activity) (2 hrs, lipid conc. 0.02, dermatoxin mass 3.3 × 10^−5 mg, with phosphatase): 0.546 absorbance units
Absorbance at 538 nm (cytolytic peptide activity) (2 hrs, lipid conc. 0.02, dermatoxin mass 3.3 × 10^−5 mg, without phosphatase): 0.633 absorbance units
Absorbance at 538 nm (cytolytic peptide activity) (2 hrs, lipid conc. 0.02, dermatoxin mass 3.3 × 10^−6 mg, with phosphatase): 0.480 absorbance units
Absorbance at 538 nm (cytolytic peptide activity) (2 hrs, lipid conc. 0.02, dermatoxin mass 3.3 × 10^−6 mg, without phosphatase): 0.263 absorbance units
Absorbance at 538 nm (cytolytic peptide activity) (2 hrs, lipid conc. 0.02, dermatoxin mass 3.3 × 10^−7 mg, with phosphatase): 0.140 absorbance units
Absorbance at 538 nm (cytolytic peptide activity) (2 hrs, lipid conc. 0.02, dermatoxin mass 3.3 × 10^−7 mg, without phosphatase): 0.141 absorbance units
Absorbance at 538 nm (cytolytic peptide activity) (2 hrs, lipid conc. 0.02, dermatoxin mass 3.3 × 10^−8 mg, with phosphatase): 0.132 absorbance units
Absorbance at 538 nm (cytolytic peptide activity) (2 hrs, lipid conc. 0.02, dermatoxin mass 3.3 × 10^−8 mg, without phosphatase): 0.111 absorbance units
Absorbance at 538 nm (cytolytic peptide activity) (2 hrs, lipid conc. 0.02, dermatoxin mass 3.3 × 10^−9 mg, with phosphatase): 0.124 absorbance units
Absorbance at 538 nm (cytolytic peptide activity) (2 hrs, lipid conc. 0.02, dermatoxin mass 3.3 × 10^−9 mg, without phosphatase): 0.114 absorbance units
Absorbance at 538 nm (cytolytic peptide activity) (2 hrs, lipid conc. 0.1, dermatoxin mass 3.3 × 10^−5 mg, with phosphatase): 2.034 absorbance units
Absorbance at 538 nm (cytolytic peptide activity) (2 hrs, lipid conc. 0.1, dermatoxin mass 3.3 × 10^−5 mg, without phosphatase): 1.521 absorbance units
Absorbance at 538 nm (cytolytic peptide activity) (2 hrs, lipid conc. 0.1, dermatoxin mass 3.3 × 10^−6 mg, with phosphatase): 1.473 absorbance units
Absorbance at 538 nm (cytolytic peptide activity) (2 hrs, lipid conc. 0.1, dermatoxin mass 3.3 × 10^−6 mg, without phosphatase): 0.759 absorbance units
Absorbance at 538 nm (cytolytic peptide activity) (2 hrs, lipid conc. 0.1, dermatoxin mass 3.3 × 10^−7 mg, with phosphatase): 0.173 absorbance units
Absorbance at 538 nm (cytolytic peptide activity) (2 hrs, lipid conc. 0.1, dermatoxin mass 3.3 × 10^−7 mg, without phosphatase): 0.267 absorbance units
Absorbance at 538 nm (cytolytic peptide activity) (2 hrs, lipid conc. 0.1, dermatoxin mass 3.3 × 10^−8 mg, with phosphatase): 0.136 absorbance units
Absorbance at 538 nm (cytolytic peptide activity) (2 hrs, lipid conc. 0.1, dermatoxin mass 3.3 × 10^−8 mg, without phosphatase): 0.132 absorbance units
Absorbance at 538 nm (cytolytic peptide activity) (2 hrs, lipid conc. 0.1, dermatoxin mass 3.3 × 10^−9 mg, with phosphatase): 0.134 absorbance units
Absorbance at 538 nm (cytolytic peptide activity) (2 hrs, lipid conc. 0.1, dermatoxin mass 3.3 × 10^−9 mg, without phosphatase): 0.121 absorbance units
Absorbance at 538 nm (cytolytic peptide activity) (18 hrs (d), 1:10-diluted sample, lipid conc. 0, dermatoxin mass 3.3 × 10^−5 mg, with phosphatase): 0.053 absorbance units
Absorbance at 538 nm (cytolytic peptide activity) (18 hrs (d), 1:10-diluted sample, lipid conc. 0, dermatoxin mass 3.3 × 10^−5 mg, without phosphatase): 0.054 absorbance units
Absorbance at 538 nm (cytolytic peptide activity) (18 hrs (d), 1:10-diluted sample, lipid conc. 0, dermatoxin mass 3.3 × 10^−6 mg, with phosphatase): 0.053 absorbance units
Absorbance at 538 nm (cytolytic peptide activity) (18 hrs (d), 1:10-diluted sample, lipid conc. 0, dermatoxin mass 3.3 × 10^−6 mg, without phosphatase): 0.052 absorbance units
Absorbance at 538 nm (cytolytic peptide activity) (18 hrs (d), 1:10-diluted sample, lipid conc. 0, dermatoxin mass 3.3 × 10^−7 mg, with phosphatase): 0.052 absorbance units
Absorbance at 538 nm (cytolytic peptide activity) (18 hrs (d), 1:10-diluted sample, lipid conc. 0, dermatoxin mass 3.3 × 10^−7 mg, without phosphatase): 0.054 absorbance units
Absorbance at 538 nm (cytolytic peptide activity) (18 hrs (d), 1:10-diluted sample, lipid conc. 0, dermatoxin mass 3.3 × 10^−8 mg, with phosphatase): 0.054 absorbance units
Absorbance at 538 nm (cytolytic peptide activity) (18 hrs (d), 1:10-diluted sample, lipid conc. 0, dermatoxin mass 3.3 × 10^−8 mg, without phosphatase): 0.053 absorbance units
Absorbance at 538 nm (cytolytic peptide activity) (18 hrs (d), 1:10-diluted sample, lipid conc. 0, dermatoxin mass 3.3 × 10^−9 mg, with phosphatase): 0.053 absorbance units
Absorbance at 538 nm (cytolytic peptide activity) (18 hrs (d), 1:10-diluted sample, lipid conc. 0, dermatoxin mass 3.3 × 10^−9 mg, without phosphatase): 0.053 absorbance units
Absorbance at 538 nm (cytolytic peptide activity) (18 hrs (d), 1:10-diluted sample, lipid conc. 0.004, dermatoxin mass 3.3 × 10^−5 mg, with phosphatase): 0.092 absorbance units
Absorbance at 538 nm (cytolytic peptide activity) (18 hrs (d), 1:10-diluted sample, lipid conc. 0.004, dermatoxin mass 3.3 × 10^−5 mg, without phosphatase): 0.096 absorbance units
Absorbance at 538 nm (cytolytic peptide activity) (18 hrs (d), 1:10-diluted sample, lipid conc. 0.004, dermatoxin mass 3.3 × 10^−6 mg, with phosphatase): 0.090 absorbance units
Absorbance at 538 nm (cytolytic peptide activity) (18 hrs (d), 1:10-diluted sample, lipid conc. 0.004, dermatoxin mass 3.3 × 10^−6 mg, without phosphatase): 0.081 absorbance units
Absorbance at 538 nm (cytolytic peptide activity) (18 hrs (d), 1:10-diluted sample, lipid conc. 0.004, dermatoxin mass 3.3 × 10^−7 mg, with phosphatase): 0.066 absorbance units
Absorbance at 538 nm (cytolytic peptide activity) (18 hrs (d), 1:10-diluted sample, lipid conc. 0.004, dermatoxin mass 3.3 × 10^−7 mg, without phosphatase): 0.056 absorbance units
Absorbance at 538 nm (cytolytic peptide activity) (18 hrs (d), 1:10-diluted sample, lipid conc. 0.004, dermatoxin mass 3.3 × 10^−8 mg, with phosphatase): 0.063 absorbance units
Absorbance at 538 nm (cytolytic peptide activity) (18 hrs (d), 1:10-diluted sample, lipid conc. 0.004, dermatoxin mass 3.3 × 10^−8 mg, without phosphatase): 0.054 absorbance units
Absorbance at 538 nm (cytolytic peptide activity) (18 hrs (d), 1:10-diluted sample, lipid conc. 0.004, dermatoxin mass 3.3 × 10^−9 mg, with phosphatase): 0.062 absorbance units
